According to the supplement of paper PMC10307832:

Legend:
Experiment in all cases: relative viability (nuclei count vs DMSO), 5 days (fraction); higher = more cells survive
Trametinib + Decitabine = compound: CC(=O)Nc1cccc(-n2c(=O)n(C3CC3)c(=O)c3c(Nc4ccc(I)cc4F)n(C)c(=O)c(C)c32)c1 [Trametinib] + Nc1ncn([C@H]2C[C@H](O)[C@@H](CO)O2)c(=O)n1 [Decitabine] (partner 2 µM)
Summary of the method: (§1)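 Relative viability is defined as nuclei in treated wells over nuclei in vehicle wells. Duplicate plates were run and medians reported. Lung cancer cell lines in 1536-well plates were dosed by pin tool one day after seeding, with one drug or with a fixed anchor-drug dose plus five library-drug doses (not always all listed) in √10 steps, and nuclei were counted after 5 days.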

[1] = compound: CN1C=C(C2=CC=CC=C21)/C=C\3/C4=C(C=CC=N4)NC3=O + Nc1ncn([C@H]2C[C@H](O)[C@@H](CO)O2)c(=O)n1 [Decitabine] (partner 2 µM)
Summary of the method: as §1

[2] = compound: CN1C=C(C2=CC=CC=C21)/C=C\3/C4=C(C=CC=N4)NC3=O + CC(=O)Nc1cccc(-n2c(=O)n(C3CC3)c(=O)c3c(Nc4ccc(I)cc4F)n(C)c(=O)c(C)c32)c1 [Trametinib] (partner 0.02 µM)
Summary of the method: as §1

Trametinib + Luminespib = compound: CC(=O)Nc1cccc(-n2c(=O)n(C3CC3)c(=O)c3c(Nc4ccc(I)cc4F)n(C)c(=O)c(C)c32)c1 [Trametinib] + CCNC(=O)c1noc(-c2cc(C(C)C)c(O)cc2O)c1-c1ccc(CN2CCOCC2)cc1 [Luminespib] (partner 0.01 µM)
Summary of the method: as §1

Cell Line	relative viability (Trametinib + Decitabine; first compound 0.0025 µM)	relative viability (Trametinib + Decitabine; first compound 0.007906 µM)	relative viability (Trametinib + Decitabine; first compound 0.025 µM)	relative viability (Trametinib + Decitabine; first compound 0.07906 µM)	relative viability (Trametinib + Decitabine; first compound 0.25 µM)	relative viability ([1]; first compound 0.02 µM)	relative viability ([1]; first compound 0.06325 µM)	relative viability ([1]; first compound 0.2 µM)	relative viability ([1]; first compound 0.6325 µM)	relative viability ([1]; first compound 2 µM)	relative viability ([2]; first compound 0.02 µM)	relative viability ([2]; first compound 0.06325 µM)	relative viability ([2]; first compound 0.2 µM)	relative viability ([2]; first compound 0.6325 µM)	relative viability ([2]; first compound 2 µM)	relative viability (Trametinib + Luminespib; first compound 0.0025 µM)	relative viability (Trametinib + Luminespib; first compound 0.007906 µM)	relative viability (Trametinib + Luminespib; first compound 0.025 µM)	relative viability (Trametinib + Luminespib; first compound 0.07906 µM)	relative viability (Trametinib + Luminespib; first compound 0.25 µM)
COR-L 105	0.64	0.609	0.486	0.375	0.36	0.633	0.745	0.63	0.68	0.64	0.402	0.462	0.396	0.512	0.506	0.685	0.587	0.415	0.271	0.344
RERF-LC-KJ	0.683	0.68	0.609	0.695	0.475	0.736	0.633	0.708	0.666	0.687	0.887	0.835	0.771	0.804	0.822	1.21	1.19	1.14	1.09	0.736
NCI-H1793	0.458	0.4	0.447	0.334	0.228	0.34	0.521	0.493	0.59	0.499	0.526	0.611	0.396	0.441	0.387	0.304	0.159	0.142	0.173	0.17
CAL-12T											0.32	0.308	0.315	0.325	0.298	0.725	0.29	0.344	0.309	0.239
NCI-H1993	0.556	0.567	0.582	0.57	0.524	0.532	0.589	1.3	0.578	0.529	0.517	0.5	0.589	0.342	0.507	0.74	0.693	0.749	0.528	0.578
LXF-289	0.399	0.408	0.385	0.319	0.391	0.403	0.338	0.425	0.396	0.381	0.677	0.679	0.739	0.717	0.72	0.616	0.642	0.507	0.491	0.351
NCI-H1792	0.436	0.443	0.318	0.364	0.291	0.439	0.648	0.645	0.497	0.511	0.474	0.54	0.462	0.353	0.406	0.399	0.348	0.294	0.286	0.238
LU99A	0.796	0.813	0.59	0.665	0.511	0.855	0.877	0.902	0.848	0.842	0.554	0.504	0.494	0.588	0.597	0.297	0.241	0.187	0.189	0.151
